Measurements: patent publication EP4778929A1, “NOVEL TYPE I TOPOISOMERASE INHIBITOR, AND PREPARATION METHOD THEREFOR AND USE THEREOF” (priority 2023, dated 2025)

Experiments:
HCT116 cells = assay: Inhibition of cell proliferation by CTG (CellTiter-Glo) luminescence assay; format: cell-based; conditions: Homo sapiens, HCT-116, 72 h, read-out: HCT116, IC50
Method in brief: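 Nine-point 1:3 dilutions applied to HCT116 cells (2 000/well, McCoy's 5a + 10 % FBS) for 72 h at 37 °C, final DMSO 0.25 %. Viability read by CellTiter-Glo luminescence; % inhibition versus DMSO controls fitted to four-parameter logistic for IC50.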

[1] = tested on: Human colon cancer HCT116 cells; assay: Subcutaneous xenograft model of human colon cancer HCT-116 cells; format: in vivo, BALB/c nude mice; conditions: day 21 post-treatment, 5 mg/kg, IV, BIW×3W
Protocol: Test Example 4. Pharmacodynamic Evaluation of Compound 2, Compound 250, and Compound 253 in a Subcutaneous Xenograft Model of Human Colon Cancer HCT-116 Cells in BALB/c Female Nude Mice
Human colon cancer HCT116 cells were cultured in vitro as monolayers in McCoys 5a medium supplemented with 10% fetal bovine serum and 1% penicillin/streptomycin/amphotericin B at 37 °C in a 5% CO2 incubator. Cells were routinely passaged twice a week using trypsin-EDTA digestion. When cells reached 80%-90% confluence and the required cell number was achieved, cells were harvested. HCT116 cells (0.1 mL, 5×10^6 cells) were subcutaneously inoculated into the right dorsal region near the upper forelimb of each mouse (BALB/c nude mice, female, 6-8 weeks old). Treatment was initiated when the average tumor volume reached approximately 158 mm^3. Tumor volume was measured twice weekly. At the end of the experiment, the tumor growth inhibition rate (TGI) was calculated as: TGI (%) = [1 - (average tumor volume at the end of treatment in a particular group - average tumor volume at the start of treatment in that group) / (average tumor volume at the end of treatment in the vehicle control group - average tumor volume at the start of treatment in the vehicle control group)] × 100%.
(§1) Experimental Groups and Dosing Regimen:
• 1, Vehicle control group • 2, Compound 2, 5 mg/kg, IV, BIW×3W • 3, Compound 250, 5 mg/kg, IV, BIW×3W • 4, Compound 253, 5 mg/kg, IV, BIW×3W

[2] = tested on: Human colon cancer CR00090 cells; assay: CR00090 human colon cancer model (subcutaneous); format: in vivo, NPSG mice; conditions: day 28 post-treatment, 5 mg/kg, IV, BIW×4W
Protocol: Test Example 5: Pharmacodynamic Evaluation of Compound 117, Compound 250, and Compound 253 in the CR00090 Human Colon Cancer Model
Human colon cancer CR00090 cells were thawed, counted, and mixed with Matrigel at a 1:1 ratio. Then, 0.1 mL (5×10^5 cells) of CR00090 cells were subcutaneously inoculated into the right dorsal region near the upper forelimb of each mouse (NPSG mice, female, 6-8 weeks old). Treatment was initiated when the average tumor volume reached approximately 84 mm^3. Tumor volume was measured twice weekly. At the end of the experiment, the tumor growth inhibition rate (TGI) was calculated as: TGI (%) = [1 - (average tumor volume at the end of treatment in a particular group - average tumor volume at the start of treatment in that group) / (average tumor volume at the end of treatment in the vehicle control group - average tumor volume at the start of treatment in the vehicle control group)] × 100%.
as §1
• 1, Vehicle control group • 2, Compound 117, 5 mg/kg, IV, BIW×4W • 3, Compound 250, 5 mg/kg, IV, BIW×4W • 4, Compound 253, 5 mg/kg, IV, BIW×4W

SMILES	IC50 (HCT116 cells) [nM]	TGI [1] [%]	tumor volume ([1]; vehicle control 1146 mm^3) [mm^3]	TGI [2] [%]	tumor volume ([2]; vehicle control 1093 mm^3) [mm^3]
CC[C@@]1(O)C(=O)OCc2c1cc1n(c2=O)Cc2c-1c(=O)c1cc(F)cc(C)c1n2C [Example 2, (S)-4-ethyl-8-fluoro-4-hydroxy-10,11-dimethyl-1,12-dihydro-14H-pyrano[3,4:6,7]indolizino[2,1-b]quinoline-3,6,14(4H,11H)-trione]	< 20	81.9	335	–	–
CC[C@@]1(O)C(=O)OCc2c1cc1n(c2=O)Cc2c-1c(=O)c1cc(F)ccc1n2CCN(C)C1CCCC1 [Example 117]	< 20	–	–	82.4	262
